Earlier results as cited in US7101912B2, “Carbidopa prodrugs and derivatives, and compositions and uses thereof” (XenoPort, Inc., priority 2002, dated 2006).

Key:
[1] = rats

SMILES | conversion of the prodrug to levodopa in rat plasma (following absorption from an intestinal loop) | levels of levodopa (rat plasma following absorption from an intestinal loop) | absorption following rectal administration [1]
CC(C)(C)C(=O)Oc1ccc(C[C@H](N)C(=O)O)cc1O [NB-355] | slow | low | –
C[C@@](Cc1ccc(O)c(O)c1)(NN)C(=O)O [carbidopa] | – | – | poor
